From patent publication US9409907B2, “Inhibitor compounds” (Cancer Research Technology Limited, priority 2012, dated 2016)

Target: full length MPS1 (Homo sapiens (Human), UniProt P33981)
Experiment: Measurement of inhibition of MPS1 kinase (Caliper EZ reader mobility-shift enzyme assay)
Format: biochemical
Details: full length MPS1 12.5 nM or 3 nM, H236 peptide 5 μM, ATP 10 μM, 60 min at room temperature
Protocol: Measurement of Inhibition of MPS1 Kinase
The reaction was carried out for 60 min at room temperature and stopped by the addition of buffer (10 μl) containing 20 mM EDTA, 0.05% (v/v) Brij-35, in 0.1M HEPES-buffered saline (Free acid, Sigma, UK). The plate was read on a Caliper EZ reader II (Caliper Life Sciences).
The % inhibition of the compounds is calculated relative to the means of selected control wells.

Sequence of full length MPS1 (P33981 whole entry): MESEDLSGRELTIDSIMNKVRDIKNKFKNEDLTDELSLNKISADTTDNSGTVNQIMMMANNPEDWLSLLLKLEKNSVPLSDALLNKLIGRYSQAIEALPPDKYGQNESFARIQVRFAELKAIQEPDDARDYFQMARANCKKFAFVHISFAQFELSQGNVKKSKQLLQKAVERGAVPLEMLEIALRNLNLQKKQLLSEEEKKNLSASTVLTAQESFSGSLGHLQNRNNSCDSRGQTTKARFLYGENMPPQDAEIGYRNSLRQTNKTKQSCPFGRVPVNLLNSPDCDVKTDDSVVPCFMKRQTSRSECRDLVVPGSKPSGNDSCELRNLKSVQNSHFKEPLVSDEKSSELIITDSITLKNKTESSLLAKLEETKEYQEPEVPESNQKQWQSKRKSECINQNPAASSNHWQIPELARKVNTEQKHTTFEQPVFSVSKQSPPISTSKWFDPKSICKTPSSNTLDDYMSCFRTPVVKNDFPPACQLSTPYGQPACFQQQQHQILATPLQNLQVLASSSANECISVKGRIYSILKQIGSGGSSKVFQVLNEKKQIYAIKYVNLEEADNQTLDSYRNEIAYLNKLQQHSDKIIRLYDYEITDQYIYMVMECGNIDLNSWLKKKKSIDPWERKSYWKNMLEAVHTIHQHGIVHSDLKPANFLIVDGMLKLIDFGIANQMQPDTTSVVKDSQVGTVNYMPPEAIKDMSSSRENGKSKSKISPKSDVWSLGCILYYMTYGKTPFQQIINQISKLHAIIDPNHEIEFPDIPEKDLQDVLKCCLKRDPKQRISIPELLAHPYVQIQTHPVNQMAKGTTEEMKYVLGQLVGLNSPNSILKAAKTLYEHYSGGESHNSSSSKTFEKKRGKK

Row | SMILES | IC50 [nM]
1 | COc1nc(-c2cnn(C)c2C)ccc1Nc1ncc2ccnc(NCC(C)(C)OC)c2n1 [Example 165, N^2-(6-(1,5-dimethyl-1H-pyrazol-4-yl)-2-methoxypyridin-3-yl)-N^8-(2-methoxy-2-methylpropyl)pyrido[3,4-d]pyrimidine-2,8-diamine] | 3
2 | COc1nc(-c2cnnn2C)ccc1Nc1ncc2ccnc(NCC(C)(C)OC)c2n1 [Example 166, N^8-(2-Methoxy-2-methylpropyl)-N^2-(2-methoxy-6-(1-methyl-1H-1,2,3-triazol-5-yl)pyridin-3-yl)pyrido[3,4-d]pyrimidine-2,8-diamine] | 3
3 | COc1nc(-c2cnn(C)n2)ccc1Nc1ncc2ccnc(NCC(C)(C)OC)c2n1 [Example 167, N^8-(2-Methoxy-2-methylpropyl)-N^2-(2-methoxy-6-(2-methyl-2H-1,2,3-triazol-4-yl)pyridin-3-yl)pyrido[3,4-d]pyrimidine-2,8-diamine] | 23
4 | CCc1cc(-c2cnn(C)c2)ccc1Nc1ncc2ccnc(NCC(C)(C)C)c2n1 [Example 168, N2-(2-ethyl-4-(1-methyl-1H-pyrazol-4-yl)phenyl)-N8-neopentylpyrido[3,4-d]pyrimidine-2,8-diamine] | 27
5 | Cn1cc(-c2ccc(Nc3ncc4ccnc(NCC(C)(C)C)c4n3)c(OC(F)(F)F)c2)cn1 [Example 169, N2-(4-(1-methyl-1H-pyrazol-4-yl)-2-(trifluoromethoxy)phenyl)-N8-neopentylpyrido[3,4-d]pyrimidine-2,8-diamine] | 48
6 | COc1cc(N2CCC(N3CCOCC3)CC2)ccc1Nc1ncc2ccnc(NCC(C)(C)C)c2n1 [Example 170, N2-(2-methoxy-4-(4-morpholinopiperidin-1-yl)phenyl)-N8-neopentylpyrido[3,4-d]pyrimidine-2,8-diamine] | 4
7 | COc1cc(N2CCCCC2)ccc1Nc1ncc2ccnc(NCC(C)(C)C)c2n1 [Example 171, N2-(2-methoxy-4-(piperidin-1-yl)phenyl)-N8-neopentylpyrido[3,4-d]pyrimidine-2,8-diamine] | 65
8 | COc1cc(N2CCC(C(=O)N3CCOCC3)CC2)ccc1Nc1ncc2ccnc(NCC(C)(C)C)c2n1 [Example 172, (1-(3-methoxy-4-((8-(neopentylamino)pyrido[3,4-d]pyrimidin-2-yl)amino)phenyl)piperidin-4-yl)(morpholino)methanone] | 12
9 | COc1cc(N2CCN(C)CC2)ccc1Nc1ncc2ccnc(NCC(C)(C)C)c2n1 [Example 173, N2-(2-methoxy-4-(4-methylpiperazin-1-yl)phenyl)-N8-neopentylpyrido[3,4-d]pyrimidine-2,8-diamine] | 4
10 | CC(C)(C)CNc1nccc2cnc(Nc3ccc(N4CCOCC4)cc3Cl)nc12 [Example 174, N2-(2-chloro-4-morpholinophenyl)-N8-neopentylpyrido[3,4-d]pyrimidine-2,8-diamine] | 10
11 | COc1cc(-c2nncn2C)ccc1Nc1ncc2ccnc(NCC(C)(C)C)c2n1 [Example 175, N2-(2-methoxy-4-(4-methyl-4H-1,2,4-triazol-3-yl)phenyl)-N8-neopentylpyrido[3,4-d]pyrimidine-2,8-diamine] | 2
12 | COc1cc(N2CCN(S(C)(=O)=O)CC2)ccc1Nc1ncc2ccnc(NCC(C)(C)C)c2n1 [Example 176, N2-(2-methoxy-4-(4-(methylsulfonyl)piperazin-1-yl)phenyl)-N8-neopentylpyrido[3,4-d]pyrimidine-2,8-diamine] | 3
13 | COc1cc(-c2cnc(C)n2C)ccc1Nc1ncc2cc(C)nc(NCC(C)(C)C)c2n1 [Example 177, N2-(4-(1,2-dimethyl-1H-imidazol-5-yl)-2-methoxyphenyl)-6-methyl-N8-neopentylpyrido[3,4-d]pyrimidine-2,8-diamine] | 5
14 | COc1cc(Cl)ccc1Nc1ncc2ccnc(N3CCC4(COC4)C3)c2n1 [Example 178, N-(4-Chloro-2-methoxyphenyl)-8-(2-oxa-6-azaspiro[3.4]octan-6-yl)pyrido[3,4-d]pyrimidin-2-amine] | 24
15 | COc1cc(-c2nncn2C)ccc1Nc1ncc2cc(C)nc(NCC(C)(C)C)c2n1 [Example 179, N2-(2-methoxy-4-(4-methyl-4H-1,2,4-triazol-3-yl)phenyl)-6-methyl-N8-neopentylpyrido[3,4-d]pyrimidine-2,8-diamine] | 2
16 | COc1cc(-c2nncn2C)ccc1Nc1ncc2cc(C)nc(NCC(C)(C)OC)c2n1 [Example 180] | 3
17 | COCCn1c(-c2ccc(Nc3ncc4cc(C)nc(NCC(C)(C)C)c4n3)c(OC)c2)cnc1C [Example 181] | 19.4
18 | CCOc1cc(-c2nncn2C)ccc1Nc1ncc2cc(C)nc(NCC(C)(C)C)c2n1 [Example 182] | 3
19 | COc1cc(N2CCN(S(C)(=O)=O)CC2)ccc1Nc1ncc2cc(C)nc(NCC(C)(C)C)c2n1 [Example 183] | 16
20 | COc1cc(-c2cnn(C)c2CO)ccc1Nc1ncc2ccnc(NCC(C)(C)OC)c2n1 [Example 184] | 2

Row | SMILES | IC50 [nM]
21 | COc1cc(-c2cnn(C)c2CO)ccc1Nc1ncc2ccnc(NCC3(C)CCOC3)c2n1 (stereo not drawn) [Example 185] | 1
22 | COCCn1c(-c2ccc(Nc3ncc4ccnc(NCC(C)(C)OC)c4n3)c(OC)c2)cnc1C [Example 186] | 4
23 | COCCn1c(-c2ccc(Nc3ncc4ccnc(NCC5(C)CCOC5)c4n3)c(OC)c2)cnc1C (stereo not drawn) [Example 187] | 2
24 | CCOc1cc(-c2nncn2C)ccc1Nc1ncc2ccnc(NCC(C)(C)OC)c2n1 [Example 188] | 2
25 | CCOc1cc(-c2nncn2C)ccc1Nc1ncc2ccnc(NCC3(C)CCOC3)c2n1 (stereo not drawn) [Example 189] | 1
26 | COc1cc(-c2cn(C)nc2C)ccc1Nc1ncc2ccnc(NCC(C)(C)OC)c2n1 [Example 190] | 3
27 | COc1cc(-c2cn(C)nc2C)ccc1Nc1ncc2ccnc(NCC3(C)CCOC3)c2n1 (stereo not drawn) [Example 191] | 2
28 | COc1cc(-c2cn(C)nc2C)ccc1Nc1ncc2cc(C)nc(NCC(C)(C)OC)c2n1 [Example 192] | 5
29 | COc1cc(C(=O)N2CC(OC)C2)ccc1Nc1ncc2ccnc(NCC(C)(C)OC)c2n1 [Example 193] | 4
30 | COc1cc(C(=O)N(C)C)ccc1Nc1ncc2ccnc(NCC(C)(C)OC)c2n1 [Example 194] | 11
31 | COc1cc(C(=O)N2CCN(C)CC2)ccc1Nc1ncc2ccnc(NCC(C)(C)OC)c2n1 [Example 195] | 8
32 | COc1cc(-c2ncnn2C)ccc1Nc1ncc2cc(C)nc(NCC(C)(C)OC)c2n1 [Example 196] | 20
33 | COC(C)(C)CNc1nc(C)cc2cnc(Nc3ccc(-c4cnn(C)c4)cc3OC(F)F)nc12 [Example 197] | 34
34 | COc1cc(-c2cnn(C)c2CO)ccc1Nc1ncc2cc(C)nc(NCC(C)(C)OC)c2n1 [Example 198] | 9
35 | CS(=O)(=O)c1ccc(Nc2ncc3ccnc(N4CCC5(COC5)C4)c3n2)c(Cl)c1 [Example 199] | 25
36 | Clc1cc(-c2cncnc2)ccc1Nc1ncc2ccnc(N3CCC4(COC4)C3)c2n1 [Example 200] | 6
37 | Cc1nnc(-c2ccc(Nc3ncc4ccnc(N5CCC6(COC6)C5)c4n3)c(Cl)c2)o1 [Example 201] | 40
38 | COC(C)(C)CNc1nccc2cnc(Nc3ccc(Cl)cc3OC(F)F)nc12 [Example 202] | 70
39 | COC(C)(C)CNc1nccc2cnc(Nc3ccc(F)cc3OC(F)F)nc12 [Example 203] | 46
